Legend:
[1] = target: T1, MT1 (ML1A) (h) (Homo sapiens, UniProt P48039); experiment: Competition assay to measure binding affinity at MT1 receptor; settings: test ligand 10 μM; [125I]2-iodomelatonin 0.01 nM
T1 construct: host or cells: CHO cells

[2] = target: T2, alpha2A (h) (Homo sapiens, UniProt P08913); experiment: Competition assay to measure binding affinity at alpha2A receptor; settings: test ligand 10 μM, [3H]RX 821002 1 nM; for inhibition at 10 µM: read-out: α-2A, percent of control-specific binding
T2 construct: host or cells: CHO cells
T2 sequence (P08913 1-465): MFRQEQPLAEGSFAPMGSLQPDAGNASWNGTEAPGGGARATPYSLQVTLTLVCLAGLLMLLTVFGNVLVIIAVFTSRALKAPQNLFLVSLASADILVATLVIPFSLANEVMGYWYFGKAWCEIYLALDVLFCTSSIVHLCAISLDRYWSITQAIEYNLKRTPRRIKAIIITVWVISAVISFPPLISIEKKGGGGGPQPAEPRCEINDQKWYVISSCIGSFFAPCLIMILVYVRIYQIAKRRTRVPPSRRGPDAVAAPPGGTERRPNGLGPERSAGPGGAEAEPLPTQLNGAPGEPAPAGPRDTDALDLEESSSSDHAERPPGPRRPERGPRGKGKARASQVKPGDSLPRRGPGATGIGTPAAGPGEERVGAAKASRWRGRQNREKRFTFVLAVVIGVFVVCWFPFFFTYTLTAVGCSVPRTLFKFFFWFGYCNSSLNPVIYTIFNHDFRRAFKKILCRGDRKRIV

[3] = target: T3, D3 (h) (Homo sapiens, UniProt P35462); experiment: Competition assay to measure binding affinity at D3 receptor; settings: test ligand 10 μM; [3H]methylspiperone […]
T3 construct: host or cells: CHO cells

[4] = target: T4, 5-HT1B (h) (Homo sapiens, UniProt P28222); experiment: Competition assay to measure binding affinity at 5-HT1B receptor; settings: test ligand 10 μM; [3H]GR125743 1 nM
T4 construct: host or cells: Chem-1 (RBL) cells

[5] = target: T5, 5-HT1D (r) (Rattus norvegicus, UniProt P28565); experiment: Competition assay to measure binding affinity at 5-HT1D receptor; settings: test ligand 10 μM; [3H]serotonin 1 nM
T5 construct: host or cells: CHO cells

[6] = target: T6, NET (h) (Homo sapiens, UniProt P23975); experiment: Competition assay to measure binding affinity at norepinephrine transporter (NET); settings: test ligand 10 μM; [3H]nisoxetine 1 nM
T6 construct: host or cells: CHO cells

[7] = target: T7, D2 (h) (Homo sapiens, UniProt P14416); experiment: Competition assay to measure binding affinity at D2L receptor; settings: test ligand 10 μM; [3H]methylspiperone 0.3 nM
T7 construct: host or cells: HEK-293 cells

[8] = target: T8, 5-HT2B (h) (Homo sapiens, UniProt P41595); experiment: Competition assay to measure binding affinity at 5-HT2B receptor; settings: test ligand 10 μM; [3H]mesulergine 2 nM
T8 construct: host or cells: CHO cells

[9] = target: T9, 5-HT7 (h) (Homo sapiens, UniProt P34969); experiment: Competition assay to measure binding affinity at 5-HT7 receptor; settings: test ligand 10 μM; [3H]LSD 4 nM
T9 construct: host or cells: HEK-293 cells

[10] = target: T10, DAT (h) (Homo sapiens, UniProt Q01959); experiment: Competition assay to measure binding affinity at dopamine transporter (DAT); settings: test ligand 10 μM; [3H]BTCP 4 nM
T10 construct: host or cells: CHO cells

[11] = target: T11, 5-HT2C (h) (Homo sapiens, UniProt P28335); experiment: Competition assay to measure binding affinity at 5-HT2C receptor; settings: test ligand 10 μM; [125I](±)DOI 0.1 nM
T11 construct: host or cells: HEK-293 cells
T11 sequence (P28335 33-458): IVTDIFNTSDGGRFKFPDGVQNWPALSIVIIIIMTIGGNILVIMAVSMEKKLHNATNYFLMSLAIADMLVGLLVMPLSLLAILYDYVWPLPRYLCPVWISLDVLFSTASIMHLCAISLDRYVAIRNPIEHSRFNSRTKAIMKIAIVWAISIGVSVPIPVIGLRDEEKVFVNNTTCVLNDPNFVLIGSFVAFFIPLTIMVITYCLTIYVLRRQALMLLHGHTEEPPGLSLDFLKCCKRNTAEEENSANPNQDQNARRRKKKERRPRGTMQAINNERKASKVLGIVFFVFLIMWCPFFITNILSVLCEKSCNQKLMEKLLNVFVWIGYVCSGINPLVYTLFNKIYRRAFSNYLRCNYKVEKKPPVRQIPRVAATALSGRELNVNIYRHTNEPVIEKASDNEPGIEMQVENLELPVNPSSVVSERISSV

[12] = target: T12, human serotonin transporter (SERT) (Homo sapiens, UniProt P31645); experiment: biochemical; type: binding
T12 construct: purchased PerkinElmer RBHSTM400UA

[13] = target: T13, 5-HT1A receptor (Homo sapiens, UniProt P08908); experiment: 5-HT1A receptor radioligand competition assay (SPA); type: binding
T13 construct: purchased Perkin Elmer 6110501400UA
T13 sequence (P08908 1-422): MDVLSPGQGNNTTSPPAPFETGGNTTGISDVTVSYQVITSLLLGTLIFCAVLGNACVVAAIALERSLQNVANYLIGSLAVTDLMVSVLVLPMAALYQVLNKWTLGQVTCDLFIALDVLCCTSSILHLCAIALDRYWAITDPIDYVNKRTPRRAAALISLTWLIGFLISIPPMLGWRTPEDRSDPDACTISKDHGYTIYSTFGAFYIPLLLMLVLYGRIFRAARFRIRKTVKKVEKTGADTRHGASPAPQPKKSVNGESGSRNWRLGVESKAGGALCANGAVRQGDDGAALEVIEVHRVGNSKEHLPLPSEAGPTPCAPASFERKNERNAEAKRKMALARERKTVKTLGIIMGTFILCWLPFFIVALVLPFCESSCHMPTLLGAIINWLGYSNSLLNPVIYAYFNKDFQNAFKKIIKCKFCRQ

T5 sequence (P28565 whole entry): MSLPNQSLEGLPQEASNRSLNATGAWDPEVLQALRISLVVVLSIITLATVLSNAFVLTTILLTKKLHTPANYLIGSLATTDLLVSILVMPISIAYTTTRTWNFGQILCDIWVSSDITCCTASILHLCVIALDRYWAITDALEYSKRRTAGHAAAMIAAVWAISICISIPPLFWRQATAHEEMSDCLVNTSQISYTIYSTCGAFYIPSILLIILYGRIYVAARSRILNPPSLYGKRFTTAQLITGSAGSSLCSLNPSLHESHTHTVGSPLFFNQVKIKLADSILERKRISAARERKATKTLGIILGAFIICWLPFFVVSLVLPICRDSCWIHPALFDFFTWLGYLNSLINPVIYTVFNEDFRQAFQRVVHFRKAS
T10 sequence (Q01959 whole entry): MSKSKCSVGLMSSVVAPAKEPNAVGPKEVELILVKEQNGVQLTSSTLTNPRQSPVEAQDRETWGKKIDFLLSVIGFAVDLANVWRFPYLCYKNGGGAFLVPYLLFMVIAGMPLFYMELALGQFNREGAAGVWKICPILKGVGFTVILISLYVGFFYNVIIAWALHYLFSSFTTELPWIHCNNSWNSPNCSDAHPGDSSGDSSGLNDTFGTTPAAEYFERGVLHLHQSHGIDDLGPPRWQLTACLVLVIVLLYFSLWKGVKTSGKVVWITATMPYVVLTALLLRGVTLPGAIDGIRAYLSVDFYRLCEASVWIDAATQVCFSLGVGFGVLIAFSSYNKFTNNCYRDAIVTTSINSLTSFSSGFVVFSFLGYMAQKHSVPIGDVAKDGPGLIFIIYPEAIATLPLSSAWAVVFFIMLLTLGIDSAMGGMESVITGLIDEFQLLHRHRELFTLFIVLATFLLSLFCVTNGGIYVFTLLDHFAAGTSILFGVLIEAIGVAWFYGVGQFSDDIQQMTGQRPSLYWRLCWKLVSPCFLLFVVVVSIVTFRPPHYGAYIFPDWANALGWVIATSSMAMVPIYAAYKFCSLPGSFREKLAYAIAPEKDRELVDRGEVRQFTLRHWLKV
T1 sequence (P48039 whole entry): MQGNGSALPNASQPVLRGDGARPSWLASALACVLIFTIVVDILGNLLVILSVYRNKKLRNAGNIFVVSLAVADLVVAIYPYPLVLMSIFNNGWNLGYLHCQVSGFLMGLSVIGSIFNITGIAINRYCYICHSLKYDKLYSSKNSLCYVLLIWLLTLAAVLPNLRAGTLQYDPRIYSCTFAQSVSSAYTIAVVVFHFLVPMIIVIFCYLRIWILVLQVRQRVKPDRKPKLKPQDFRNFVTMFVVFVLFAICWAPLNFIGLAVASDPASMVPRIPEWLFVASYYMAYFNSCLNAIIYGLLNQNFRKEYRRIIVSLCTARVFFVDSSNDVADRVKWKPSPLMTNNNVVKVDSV
T12 sequence (P31645 whole entry): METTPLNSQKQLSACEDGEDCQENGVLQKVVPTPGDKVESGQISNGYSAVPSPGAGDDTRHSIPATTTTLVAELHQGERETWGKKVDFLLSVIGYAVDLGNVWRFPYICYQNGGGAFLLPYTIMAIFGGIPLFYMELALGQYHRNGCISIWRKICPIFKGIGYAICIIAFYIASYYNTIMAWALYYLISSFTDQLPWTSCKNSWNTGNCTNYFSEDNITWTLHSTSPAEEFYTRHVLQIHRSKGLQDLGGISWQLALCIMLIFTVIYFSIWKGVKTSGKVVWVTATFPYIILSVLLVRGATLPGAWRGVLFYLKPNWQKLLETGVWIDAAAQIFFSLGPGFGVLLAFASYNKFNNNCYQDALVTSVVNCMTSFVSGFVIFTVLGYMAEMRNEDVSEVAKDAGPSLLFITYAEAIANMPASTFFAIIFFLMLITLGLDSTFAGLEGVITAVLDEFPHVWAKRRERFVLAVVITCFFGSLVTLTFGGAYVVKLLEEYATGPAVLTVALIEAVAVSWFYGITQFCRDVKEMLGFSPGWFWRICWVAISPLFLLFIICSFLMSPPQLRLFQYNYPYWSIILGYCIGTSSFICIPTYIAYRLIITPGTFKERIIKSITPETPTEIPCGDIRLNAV
T8 sequence (P41595 whole entry): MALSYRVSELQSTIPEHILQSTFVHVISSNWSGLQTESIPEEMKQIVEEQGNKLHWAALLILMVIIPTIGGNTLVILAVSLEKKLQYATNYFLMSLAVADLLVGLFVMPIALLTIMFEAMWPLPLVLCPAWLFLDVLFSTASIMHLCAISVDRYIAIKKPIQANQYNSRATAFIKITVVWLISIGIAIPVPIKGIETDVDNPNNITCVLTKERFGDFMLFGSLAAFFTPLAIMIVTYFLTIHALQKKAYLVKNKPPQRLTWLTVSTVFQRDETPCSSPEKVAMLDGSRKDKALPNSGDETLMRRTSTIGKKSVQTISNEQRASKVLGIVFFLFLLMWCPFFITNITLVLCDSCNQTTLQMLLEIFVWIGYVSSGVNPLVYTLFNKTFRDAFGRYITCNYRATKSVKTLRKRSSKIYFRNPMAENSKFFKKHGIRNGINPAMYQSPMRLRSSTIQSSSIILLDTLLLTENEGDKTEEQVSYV
T3 sequence (P35462 whole entry): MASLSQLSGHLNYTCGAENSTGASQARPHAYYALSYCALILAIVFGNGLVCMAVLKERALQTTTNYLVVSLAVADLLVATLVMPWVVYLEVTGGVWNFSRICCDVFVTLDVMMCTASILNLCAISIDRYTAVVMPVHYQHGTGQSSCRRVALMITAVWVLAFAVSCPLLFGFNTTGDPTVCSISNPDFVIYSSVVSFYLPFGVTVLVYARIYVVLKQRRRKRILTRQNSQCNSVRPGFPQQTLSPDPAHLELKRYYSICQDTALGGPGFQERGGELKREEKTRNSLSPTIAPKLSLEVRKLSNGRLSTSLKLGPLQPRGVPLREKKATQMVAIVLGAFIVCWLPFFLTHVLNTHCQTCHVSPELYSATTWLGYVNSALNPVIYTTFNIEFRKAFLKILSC
T7 sequence (P14416 whole entry): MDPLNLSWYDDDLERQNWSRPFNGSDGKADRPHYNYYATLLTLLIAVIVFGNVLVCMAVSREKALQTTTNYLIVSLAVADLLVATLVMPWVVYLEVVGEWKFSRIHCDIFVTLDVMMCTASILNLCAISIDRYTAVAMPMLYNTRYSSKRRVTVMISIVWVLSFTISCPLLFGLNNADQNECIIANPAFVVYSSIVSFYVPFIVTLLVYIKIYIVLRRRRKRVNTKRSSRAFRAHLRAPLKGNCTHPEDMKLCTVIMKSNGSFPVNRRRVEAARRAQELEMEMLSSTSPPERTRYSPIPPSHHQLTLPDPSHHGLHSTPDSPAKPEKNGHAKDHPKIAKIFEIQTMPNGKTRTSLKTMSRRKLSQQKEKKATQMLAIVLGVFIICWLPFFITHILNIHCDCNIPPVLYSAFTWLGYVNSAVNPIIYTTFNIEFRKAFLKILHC
T4 sequence (P28222 whole entry): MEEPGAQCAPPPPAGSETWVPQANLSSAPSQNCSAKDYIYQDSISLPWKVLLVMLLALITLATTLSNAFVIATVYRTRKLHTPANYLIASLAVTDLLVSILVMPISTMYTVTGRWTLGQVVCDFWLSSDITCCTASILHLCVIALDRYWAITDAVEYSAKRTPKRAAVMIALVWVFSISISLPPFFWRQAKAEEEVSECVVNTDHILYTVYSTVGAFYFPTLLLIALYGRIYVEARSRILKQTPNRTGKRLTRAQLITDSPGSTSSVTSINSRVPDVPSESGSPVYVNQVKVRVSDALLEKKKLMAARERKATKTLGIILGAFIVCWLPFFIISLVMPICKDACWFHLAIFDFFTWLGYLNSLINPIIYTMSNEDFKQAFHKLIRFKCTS
T6 sequence (P23975 whole entry): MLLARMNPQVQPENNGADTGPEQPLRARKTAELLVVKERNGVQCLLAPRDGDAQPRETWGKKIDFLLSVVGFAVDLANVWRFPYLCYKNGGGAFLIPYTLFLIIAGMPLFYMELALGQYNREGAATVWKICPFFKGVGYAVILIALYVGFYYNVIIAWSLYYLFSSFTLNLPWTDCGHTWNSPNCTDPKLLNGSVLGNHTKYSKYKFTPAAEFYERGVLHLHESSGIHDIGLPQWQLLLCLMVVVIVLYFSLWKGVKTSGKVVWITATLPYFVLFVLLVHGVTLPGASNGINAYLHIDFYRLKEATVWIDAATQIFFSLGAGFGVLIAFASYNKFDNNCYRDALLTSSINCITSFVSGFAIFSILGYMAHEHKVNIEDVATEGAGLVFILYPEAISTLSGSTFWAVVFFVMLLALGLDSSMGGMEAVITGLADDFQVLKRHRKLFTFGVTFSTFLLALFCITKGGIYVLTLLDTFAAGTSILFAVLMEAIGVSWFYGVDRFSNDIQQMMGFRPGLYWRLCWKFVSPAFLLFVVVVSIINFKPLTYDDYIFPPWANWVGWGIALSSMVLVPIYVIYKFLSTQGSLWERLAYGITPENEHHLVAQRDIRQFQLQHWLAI
T9 sequence (P34969 whole entry): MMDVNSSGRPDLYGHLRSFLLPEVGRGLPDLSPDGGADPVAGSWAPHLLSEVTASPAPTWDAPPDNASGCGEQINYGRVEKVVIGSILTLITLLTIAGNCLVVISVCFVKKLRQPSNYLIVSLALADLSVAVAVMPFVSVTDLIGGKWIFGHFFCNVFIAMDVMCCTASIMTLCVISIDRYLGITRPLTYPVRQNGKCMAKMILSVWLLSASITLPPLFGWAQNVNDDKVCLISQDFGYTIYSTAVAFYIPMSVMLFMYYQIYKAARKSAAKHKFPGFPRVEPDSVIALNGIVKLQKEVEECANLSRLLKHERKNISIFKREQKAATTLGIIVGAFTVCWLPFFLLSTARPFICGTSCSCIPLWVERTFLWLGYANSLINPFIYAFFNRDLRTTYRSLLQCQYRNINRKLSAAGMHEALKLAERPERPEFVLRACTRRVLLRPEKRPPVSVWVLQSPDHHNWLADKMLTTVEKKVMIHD

SMILES | MT1, percent of control-specific binding [1] | α-2A, percent of control-specific binding [2] | D3, percent of control-specific binding [3] | HT1B, percent of control-specific binding [4] | HT1D, percent of control-specific binding [5] | NET, percent of control-specific binding [6] | D2, percent of control-specific binding [7] | HT2B, percent of control-specific binding [8] | HT7, percent of control-specific binding [9] | DAT, percent of control-specific binding [10] | inhibition at 10 µM [2] | HT2C, percent of control-specific binding [11] | Ki [12] | SERT binding, binding curve in words [12] | 5-HT1A receptor binding, binding curve in words ([13]; FIGS. 35C-35L) | Ki ([13]; competition with 0.5 nM 8-hydroxy-DPAT [3H], test compound 3 nM to 1 mM, read-out: 5-HT1A, Ki)
COc1cc(CC(C)N)c(OC)cc1Br (centres unmarked) [DOB, reference compound] | −3% | 66% | 25% | 20% | 84% | 6% | 9% | 97% | 65% | 3% | – | – | – | – | – | –
COc1ccc2cccc(CCNC(C)=O)c2c1 [Agomelatine, reference compound] | 99% | – | 6% | −9% | 10% | 1% | −4% | 93% | – | 1% | 2% | 92% | – | – | – | –
CC(NC(C)(C)C)C(=O)c1cccc(Cl)c1 (centres unmarked) [Bupropion, reference compound] | 83% | – | 3% | 9% | −1% | – | −5% | −2% | – | 92% | 2% | 1% | – | – | – | –
N#Cc1ccc2[nH]cc(CCCCN3CCN(c4ccc5oc(C(N)=O)cc5c4)CC3)c2c1 [Vilazodone, reference compound] | 84% | – | 99% | 67% | 97% | 99% | 97% | 96% | – | 98% | 65% | 92% | – | – | – | –
Cc1ccc(Sc2ccccc2N2CCNCC2)c(C)c1 [vortioxetine, reference compound] | 26% | – | 88% | 101% | 100% | 99% | 51% | 97% | – | 90% | 62% | 99% | 0.00203 µM | very tight interaction | – | –
N[C@@H](Cc1c[nH]c2ccccc12)C(=O)O [tryptophan, reference compound] | −2% | – | −23% | −22% | 3% | 1% | −19% | 0% | – | 1% | -4% | 25% | > 1000 µM | no binding to SERT | no binding | > 1000 µM

— patent US12428408B2, “Fused heterocyclic mescaline derivatives” (Enveric Biosciences Canada Inc., priority 2022, dated 2025)
